Experimental data reported in US20230241257A1, “BIOTIN-MODIFIED DIMER AND USE THEREOF” (THE UNIVERSITY OF TOKYO, priority 2020, published 2023).

Columns and labels:
[1] = tested on: human stomach cancer cells (MKN-45); experiment: Experiment 6: pharmacokinetics of Cupid-scFv antibody (48 h before)+^211At-psyche-BR in MKN-45 cancer-bearing mouse models; format: in vivo, mice (BALB/cSlc nu/nu)
Protocol: The present experiment used human stomach cancer cells (MKN-45) expressing carcinoembryonic antigen (CEA). 9-week-old male immunodeficient mice (BALB/cSlc nu/nu) were used. MKN-45 cells (1×10^7/0.1 ml) were transplanted into the mice's subcutis on the right shoulder dorsal side to produce cancer-bearing mouse models. The mice were divided into four groups when the tumor volume became a predetermined size (on Day 12 after the transplantation), and the Cupid-scFv antibody was administered 100 μmol/0.1 ml via the caudal vein of each mouse. Forty-eight hours after administration of the Cupid-scFv antibody, […] (about 0.25 MBq/100 ml) was administered via the caudal vein of each mouse. One minute, 1 hour, 6 hours, and 24 hours after administration of the ^211At-psyche-BR, the mice were euthanized by collecting whole blood from the heart of each mouse under isoflurane anesthesia, and tumor tissues and normal tissues/organs were then excised. Normal tissues/organs: skin (lower right limb), muscle (right gastrocnemius muscle), heart, lung, spleen, pancreas, white fat (upper portion of right side testis), testis (both sides), stomach, stomach contents, small intestine (not including contents), large intestine (not including contents), liver, brown fat (interscapular), submandibular gland, thyroid gland (together with trachea), bone (right femur), cerebrum, eyeballs (both sides), bladder, and urine; the remaining residues were divided into three equal parts, and the three equal parts were defined to be residue-1, residue-2, and residue-3. After that, the weights of blood, plasma, urine, tumor, and normal tissues/organs were measured, and the radioactivity thereof was then measured using a γ counter. The amounts of the ^211At-psyche-BR (radioactivity) accumulated in the blood, plasma, urine, tumor, and normal tissues/organs were calculated. That is to say, the rates (% ID/g) of the ^211At-psyche-BR accumulated per unit weight (g) of the blood, plasma, urine, tumor, and normal tissues/organs, in the administered ^211At-psyche-BR were shown. Regarding accumulation of the ^211At-psyche-BR in the thyroid gland, since the weight of the thyroid gland could not be precisely measured, it was shown that the rate (% ID) of the ^211At-psyche-BR accumulated in the thyroid gland in the administered ^211At-psyche-BR.

[2] = tested on: human stomach cancer cells (MKN-45); experiment: Experiment 10: therapeutic effects and toxicity of Cupid-scFv antibody (24 h before)+^211At-psyche-B in MKN-45 cancer-bearing mouse models; format: in vivo, mice (BALB/cSlc nu/nu)
Protocol: The present experiment used human stomach cancer cells (MKN-45) expressing carcinoembryonic antigen (CEA). 9-week-old male immunodeficient mice (BALB/cSlc nu/nu) were used. MKN-45 cells (5×10^6/0.1 ml) were transplanted into the mice's subcutis on the right shoulder dorsal side to produce cancer-bearing mouse models. At the time point in which the tumor volume became a predetermined size (on Day 8 after the transplantation), the mice were divided into six groups, which were for use in the evaluation of the therapeutic effects, and a biodistribution group (6 hours) of cancer-bearing mouse models having this tumor size. The Cupid-scFv antibody was administered 100 μmol/0.1 ml via the caudal vein of each mouse. Twenty-four hours after administration of the Cupid-scFv antibody, ^211At-psyche-B was administered via the caudal vein of each mouse in an amount of 3.70 MBq, 1.85 MBq, 1.11 MBq, or 0.37 MBq.
In the present experiment, a 5.55 MBq administration group was not established. To a control group, a solvent for the ^211At-psyche-B was administered (solvent group). A group to which only cupid was administered was defined as a Cupid group. The mice's general states were observed and recorded immediately after administration of the ^211At-psyche-B and at 3 hours after the administration. Moreover, until Day 14, after administration of the ^211At-psyche-B, observation of the general states and the measurement of the body weight was carried out every day. After Day 14 of the administration of the […], observation of the general states and the measurement of the body weight was carried out every other day. The tumor size was measured every other day after the treatment with the ^211At-psyche-B. On Day 36, after the treatment with the ^211At-psyche-B, observation of the general states, the measurement of the body weight, and the measurement of the tumor size were carried out, and the mice were then euthanized by collecting whole blood from the heart of each mouse under isoflurane anesthesia. Tumor tissues and major tissues/organs were excised from the mice, weighed, and immobilized with formalin.

N=C1N[C@H]2[C@H](CS[C@H]2CCCCNC(=O)CCCCCC(=O)Nc2cc(NC(=O)CCCCCC(=O)NCCCC[C@@H]3SC[C@@H]4NC(=N)N[C@@H]43)cc(C(=O)NCCOCCOCCNC(=O)c3cccc([211At])c3)c2)N1 [^211At-psyche-BR]
Accumulation in the blood ([1]; after 1 minute): 26.4±2.7 % ID/g | Accumulation in the kidney ([1]; after 1 minute): 81.7±11.8 % ID/g | Accumulation in the liver ([1]; after 1 minute): 31.5±4.3 % ID/g | Accumulation in the lung ([1]; after 1 minute): 9.5±0.4 % ID/g | Accumulation in the spleen ([1]; after 1 minute): 3.4±0.2 % ID/g | Accumulation in the tumor ([1]; after 1 minute): 0.5±0.0 % ID/g | tumor-to-blood ratio ([1]; after 1 minute): 0.02±0.00 | tumor-to-muscle ratio ([1]; after 1 minute): 1.30±0.06 | Accumulation in the blood ([1]; after 1 hour): 30.6±3.2 % ID/g | Accumulation in the kidney ([1]; after 1 hour): 54.5±4.0 % ID/g | Accumulation in the liver ([1]; after 1 hour): 19.8±1.3 % ID/g | Accumulation in the lung ([1]; after 1 hour): 12.7±0.6 % ID/g | Accumulation in the spleen ([1]; after 1 hour): 6.8±0.3 % ID/g | Accumulation in the tumor ([1]; after 1 hour): 3.2±0.5 % ID/g | tumor-to-blood ratio ([1]; after 1 hour): 0.10±0.01 | tumor-to-muscle ratio ([1]; after 1 hour): 5.13±0.67 | Accumulation in the blood ([1]; after 6 hours): 22.7±2.7 % ID/g | Accumulation in the kidney ([1]; after 6 hours): 15.0±2.3 % ID/g | Accumulation in the liver ([1]; after 6 hours): 18.7±2.7 % ID/g | Accumulation in the lung ([1]; after 6 hours): 7.5±3.3 % ID/g | Accumulation in the spleen ([1]; after 6 hours): 9.7±1.0 % ID/g | Accumulation in the tumor ([1]; after 6 hours): 9.3±1.4 % ID/g | tumor-to-blood ratio ([1]; after 6 hours): 0.42±0.11 | tumor-to-muscle ratio ([1]; after 6 hours): 11.42±1.05 | Accumulation in the thyroid gland ([1]; after 24 h): 0.19±0.03 % ID | Accumulation in the blood ([1]; after 24 hours): 1.6±1.0 % ID/g | Accumulation in the kidney ([1]; after 24 hours): 5.6±1.0% | Accumulation in the liver ([1]; after 24 hours): 8.9±1.7% | Accumulation in the lung ([1]; after 24 hours): 2.9±0.3% | Accumulation in the spleen ([1]; after 24 hours): 4.6±1.6% | Accumulation in the tumor ([1]; after 24 hours): 7.4±2.3% | administered amount excreted (blood) ([1]; after 24 hours): about 98% | tumor-to-blood ratio ([1]; after 24 hours): 5.39±1.56 | tumor-to-muscle ratio ([1]; after 24 hours): 27.98±2.34

N=C1N[C@H]2[C@H](CS[C@H]2CCCCC(=O)NCCCCCC(=O)Nc2cc(NC(=O)CCCCCNC(=O)CCCC[C@@H]3SC[C@@H]4NC(=N)N[C@@H]43)cc(C(=O)NCCOCCOCCNC(=O)c3cccc([211At])c3)c2)N1 [^211At-psyche-B]
body weight reduction ([2]; 0.37 MBq, before Day 10): body weight reduction was lower than that in the 1.11 MBq | body weight reduction ([2]; 0.37 MBq, on and after Day 10): the body weight reduction was the same as in the 1.11 MBq | tumor growth compared with the control group ([2]; 0.37 MBq, until Day 10): tumor growth was suppressed | body weight recovery ([2]; 1.11 MBq, after Day 5): the body weight was not recovered to the same level as the control groups | body weight ([2]; 1.11 MBq, until Day 5): the body weight was slightly reduced | tumor growth compared with the control group ([2]; 1.11 MBq, until Day 10): tumor growth was suppressed | tumor growth compared with the control group ([2]; 1.85, 1.11 and 0.37 MBq, after Day 10): the tumor growth was suppressed in an amount-dependent manner | general states and body weight ([2]; 1.85 MBq, Day 5): general states and body weight reduction became significantly severe | mortality ([2]; 1.85 MBq, Day 10): one mouse died | recovery of general states ([2]; 1.85 MBq, Day 26): the mice were completely recovered | skin findings ([2]; 1.85 MBq, on and after Day 6 until Day 12): red spots were dispersed on the skin | tumor growth compared with the control group ([2]; 1.85 MBq, until Day 10): tumor growth was suppressed | general states and body weight ([2]; 3.70 MBq, Day 5, urgent euthanasia): general states and body weight reduction became severe
